From ChEMBL document CHEMBL1158663, “New acetylenes isolated from the bark of Heisteria acuminata” (J Nat Prod, 1998)

Assays:
Ovis aries [1] = organism: Ovis aries; experiment: Inhibition of COX in sheep seminal vesicle microsome assessed as reduction in PGE2 concentration at 13 uM relative to control; type: microsomes
Ovis aries [2] = organism: Ovis aries; experiment: Inhibition of COX in sheep seminal vesicle microsome assessed as reduction in PGE2 concentration at 6.5 uM relative to control; type: microsomes
Sus scrofa = organism: Sus scrofa; experiment: Inhibition of 5-LO from pig leukocytes at 5 uM

| Compound | inhibition (Ovis aries [1]) | inhibition (Ovis aries [2]) | inhibition (Sus scrofa) |
| --- | --- | --- | --- |
| CCCCC#CC#CC#CCCCCC(=O)O | 55% | 36% | 18% |
| CCCC/C=C\C#CC#CCCCCCC(=O)O | 51% | 36% | 45% |
| CCCC/C=C/C#CC#CCCCCC(=O)O | 56% | 44% | 14% |
| CCCCC/C=C\CC#CC#CCCCCCC(=O)O | 56% | 40% | 55% |
| CCCCCC#CC#CC#CCCCCCCC(=O)O | 45% | 33% | 21% |
